± gives the standard deviation of the reports.
Compound | glass transition temperature
*OC(=O)CCCCCCCCC(=O)OC1COC2C(*)COC12 (repeat unit) | 3.00 °C
*c1ccc(-c2cnc3cc4ncc(*)nc4cc3n2)cc1 (repeat unit) | 392.00 °C
*c1ccc2c(c1)C(=O)N(c1ccc(C(C)(C)c3ccc(C(C)(C)c4ccc(N5C(=O)c6ccc(C(*)(C(F)(F)F)C(F)(F)F)cc6C5=O)cc4)cc3)cc1)C2=O (repeat unit) | 235.40 °C
*C(=O)c1ccc(Oc2ccc(C(C)(C)c3ccc(Oc4ccc(*)s4)cc3)cc2)s1 (repeat unit) | 124.00 °C
*CC(=O)Nc1cccc2c(NC(=O)COc3ccc4ccccc4c3Sc3c(O*)ccc4ccccc34)cccc12 (repeat unit) | 264.00 °C
*CC(*)C(=O)c1ccc(C(C)C)cc1 (repeat unit) | 62.50 °C
*CC#CCOC(=O)NCCCCCCNC(=O)O* (repeat unit) | -45.00 °C
*CCCCCCCCCn1c(=O)c2cc3c(=O)n(*)c(=O)c3cc2c1=O (repeat unit) | 110.00 °C
*OC(=O)C1CCC(C(=O)OC2COC3C(*)COC23)CC1 (repeat unit) | 121.00 °C
*Oc1ccc(C(C)(C)c2ccc(Oc3ccc(C(=O)c4ccc(*)c(S(=O)(=O)O)c4)cc3S(=O)(=O)O)cc2)cc1 (repeat unit) | 175.00 °C
*CC(*)(C)C(=O)OCCCCCCCCCCCOc1ccc2cc(C(=O)Oc3ccccc3)ccc2c1 (repeat unit) | 10.00 °C
*Oc1ccccc1C(=O)OC(=O)c1ccccc1OC(=O)CCCC(*)=O (repeat unit) | 50.00 °C
*c1ccc(Oc2ccc(C(c3ccc(Oc4ccc(-c5nc(-c6ccccn6)nnc5*)cc4)cc3)(C(F)(F)F)C(F)(F)F)cc2)cc1 (repeat unit) | 224.00 °C
*CC(*)(CC(=O)OCCCCC)C(=O)OCCCCC (repeat unit) | 2.00 °C
*CCCCCCCCOc1ccc(/C=C2\CCC/C(=C\c3ccc(O*)cc3)C2=O)cc1 (repeat unit) | 90.00 °C
*CC(CO*)(CS(=O)(=O)CC)CS(=O)(=O)CC (repeat unit) | 84.00 °C
*CCCCCCCCOC(=O)c1cccc(C(=O)O*)c1 (repeat unit) | -9.00 °C
*O[Si](*)(C)CCC (repeat unit) | -120.00 °C
*C(=O)c1ccc2nc(-c3ccccc3)c(-c3ccc(-c4nc5cc(*)ccc5nc4-c4ccccc4)cc3)nc2c1 (repeat unit) | 325.00 °C
*Oc1ccc(S(=O)(=O)c2ccc(Oc3ccc(C45CC6CC(CC(c7ccc(*)cc7)(C6)C4)C5)cc3)cc2)cc1 (repeat unit) | 242.00 °C
*c1ccc(Oc2ccc(N3C(=O)c4ccc(Oc5ccc6c(c5)C(=O)N(*)C6=O)cc4C3=O)cc2Br)c(Br)c1 (repeat unit) | 251.00 °C
*CC(*)(C)C(=O)NC(=O)Oc1ccc(S(=O)(=O)c2ccc(O)cc2)cc1 (repeat unit) | 182.00 °C
*C(=O)c1ccc2c(c1)C(=O)N(c1ccc(-c3ccc(N4C(=O)c5ccc(*)cc5C4=O)cc3)cc1)C2=O (repeat unit) | 382.00 °C
*CCN(CCOC(=O)Nc1cccc(NC(=O)O*)c1C)c1ccc(/C=C/c2ccc([N+](=O)[O-])cc2)cc1 (repeat unit) | 123.00 °C

Compound | glass transition temperature
*O[Si](*)(C)CCCOc1ccc(C(=O)Oc2ccc(OC)cc2)cc1 (repeat unit) | 37.00 °C
*CCOP(=O)(/N=N/c1ccc(COC(=O)c2cc(C(=O)OCc3ccc(/N=N/P(=O)(O*)OC)cc3)cc(C(C)(C)C)c2)cc1)OC (repeat unit) | 105.00 °C
*Oc1ccc(OC(=O)c2ccc(C(*)=O)cc2)cc1C1CC2CCC1C2 (repeat unit) | 267.00 °C
*Nc1ccc(C(=O)c2ccc(NC(=O)c3cc(C(*)=O)cc(C(C)(C)C)c3)cc2)cc1 (repeat unit) | 271.00 °C
*CC(*)(C)C(=O)Nc1cccc(-c2nnc(-c3ccccc3)o2)c1 (repeat unit) | 65.00 °C
*CCOc1ccc(S(=O)(=O)c2ccc(OCCOP(=O)(O*)Oc3ccc(Br)cc3)cc2)cc1 (repeat unit) | 59.00 °C
*Nc1ccc(NC(=O)c2ccc(P(=O)(c3ccccc3)c3ccc(C(*)=O)cc3)cc2)cc1 (repeat unit) | 252.00 °C
*CC(OCC(C)C)C(C(=O)OC)C(*)C(=O)OC (repeat unit) | 44.50 °C
*CCc1ccc(*)c(C)c1 (repeat unit) [Poly(methyl-p-xylylene) ] | 55 ± 1.9 °C
*CC(*)(C)C(=O)OCCF (repeat unit) | 90.00 °C
*OC(=O)C(NC(=O)CCCCCCCCC(=O)NC(C(=O)OC1COC2C(*)COC12)C(C)CC)C(C)CC (repeat unit) | 91.00 °C
*c1cccc(P(=O)(c2cccc(-n3c(=O)c4cc5c(=O)n(*)c(=O)c5c(-c5ccc(C(F)(F)F)cc5)c4c3=O)c2)c2cc(C(F)(F)F)cc(C(F)(F)F)c2)c1 (repeat unit) | 292.00 °C
*CC(COc1ccc(C(C)(C)c2ccc(O*)cc2)cc1)OC(=O)c1ccccc1 (repeat unit) | 65.00 °C
*CCCCCCCCCNC(=O)CCCCC(=O)N* (repeat unit) | 68.00 °C
*c1ccc(Oc2ccc(-c3ccc(Oc4ccc(N5C(=O)c6ccc(Oc7ccc(C8(c9ccc(Oc%10ccc%11c(c%10)C(=O)N(*)C%11=O)cc9)CCC(c9ccccc9)CC8)cc7)cc6C5=O)cc4)cc3C)c(C)c2)cc1 (repeat unit) | 226.00 °C
*CC(*)(C)C(=O)Oc1ccccc1 (repeat unit) | 110.00 °C
*Oc1ccc(C2(c3ccc(OC(=O)c4ccc(C(*)=O)cc4)cc3)CCC(C(C)(C)C)CC2)cc1 (repeat unit) | 210.00 °C
*O[Si](C)(C)O[Si](C)(C)C#Cc1ccc(C#C[Si](*)(C)C)cc1 (repeat unit) | 104.00 °C
*CCCCCCOP(=O)(/N=N/c1ccc(COC(=O)c2cc(C(=O)OCc3ccc(/N=N/P(=O)(O*)OC)cc3)cc(C(C)(C)C)c2)cc1)OC (repeat unit) | 62.00 °C
*CC(*)c1ccc(Cl)c(C)c1 (repeat unit) | 114.00 °C
*Oc1ccc2ccc(Oc3ccc(C(=O)Nc4ccc(Oc5ccc(C(C)(C)c6ccc(C(C)(C)c7ccc(Oc8ccc(NC(=O)c9ccc(*)cc9)cc8)cc7)cc6)cc5)cc4)cc3)cc2c1 (repeat unit) | 166.00 °C
*CC1CCCC(CNC(=O)CCCCC(=O)N*)C1 (repeat unit) | 107.00 °C
*C(=O)Nc1ccc(Oc2ccc(-c3ccc(Oc4ccc(NC(=O)c5ccc6c(c5)C(=O)N(c5cccc(N7C(=O)c8ccc(*)cc8C7=O)c5)C6=O)cc4)cc3)cc2)cc1 (repeat unit) | 292.00 °C
*Oc1c(C)cc(C(c2cc(C)c(OC(*)=O)c(C)c2)(C(F)(F)F)C(F)(F)F)cc1C (repeat unit) | 208.00 °C

Compound | glass transition temperature
*c1ccc(Oc2ccc(N3C(=O)c4ccc(Oc5ccc(S(=O)(=O)c6ccc(Oc7ccc8c(c7)C(=O)N(*)C8=O)cc6)cc5)cc4C3=O)cc2)cc1 (repeat unit) | 260.00 °C
*Cc1cccc(CNC(=O)c2cccc(C(=O)N*)c2)c1 (repeat unit) | 172.00 °C
*C(=O)OCCCSCCCCCCSCCCOC(=O)c1ccc(N2C(=O)c3ccc(*)cc3C2=O)cc1 (repeat unit) | 31.00 °C
*C[Si](*)(C)C (repeat unit) | -90.00 °C
*Oc1ccc(C2(c3ccc(OC(=O)OC4C(C)(C)C(OC(*)=O)C4(C)C)cc3)CC3CCC2C3)cc1 (repeat unit) | 184.00 °C
*CCOC(=O)NCCCCCCCCCCNC(=O)O* (repeat unit) | 60.80 °C
*Oc1ccc(C(=O)c2ccccc2)c(-c2cc(Oc3ccc(C(C)(C)c4ccc(*)cc4)cc3)ccc2C(=O)c2ccccc2)c1 (repeat unit) | 156.00 °C
*c1ccc(-c2ccc(C3(*)c4ccccc4-c4ccccc43)cc2)cc1 (repeat unit) | 297.00 °C
*Oc1ccc(-c2ccc(Oc3ccc(C(=O)c4ccc5cc(C(=O)c6ccc(*)cc6)ccc5c4)cc3)cc2)cc1 (repeat unit) | 195.00 °C
*C/C=C(\C)CS(*)(=O)=O (repeat unit) | 88.20 °C
*CC(*)c1ccc(O)c(OC)c1 (repeat unit) | 142.00 °C
*c1cccc(Cc2cccc(N3C(=O)c4ccc([Si](C)(C)c5ccc(-c6ccc([Si](C)(C)c7ccc8c(c7)C(=O)N(*)C8=O)cc6)cc5)cc4C3=O)c2)c1 (repeat unit) | 285.00 °C
*c1cccc(NC(=O)CCCCCCCCCCC(=O)Nc2cccc(S(*)(=O)=O)c2)c1 (repeat unit) | 107.00 °C
*Oc1ccc(OC(=O)c2ccc(-c3ccc(C(*)=O)cc3)cc2-c2ccccc2)cc1C(C)(C)c1ccccc1 (repeat unit) | 146.00 °C
*CC(*)c1ccc(COCCOCC)cc1 (repeat unit) | 0.00 °C
*OP(=O)(Oc1ccc(C(C)(C)c2ccc(*)cc2)cc1)Oc1c(Cl)cc(Cl)cc1Cl (repeat unit) | 94.00 °C
*CCCCOC(=O)COCC(=O)O* (repeat unit) | -23.00 °C
*c1ccc2c(c1)C(=O)N(c1ccc(C(C)(C)c3ccc(N4C(=O)c5ccc(C(*)(C(F)(F)F)C(F)(F)F)cc5C4=O)cc3)cc1)C2=O (repeat unit) | 310.00 °C
*/C(=C(/*)c1ccc[c]([Ge]([CH3])([CH3])[CH3])c1)c1ccccc1 (repeat unit) | 200.00 °C
*c1ccc2c(c1)C(=O)N(c1c(C)cc(Cc3cc(C)c(N4C(=O)c5ccc(C(*)(C(F)(F)F)C(F)(F)F)cc5C4=O)c(C(C)C)c3)cc1C(C)C)C2=O (repeat unit) | 276.00 °C
*/C(C)=C(/*)[Si](C)(C)C[Si](C)(C)C (repeat unit) | 200.00 °C
*c1ccc(C)c(N2C(=O)c3ccc(S(=O)(=O)c4ccc5c(c4)C(=O)N(*)C5=O)cc3C2=O)c1 (repeat unit) | 348.00 °C

— the PolyMetriX glass transition set
